Assay results: patent publication US4755526A, “Method of inhibiting aromatase” (Eli Lilly and Company, priority 1984, dated 1988)
Where a name gives a salt, the structure may show the parent alone.

Columns and labels:
aromatase = biological target: T1, aromatase (Rattus norvegicus, UniProt P22443); test: Aromatase inhibition in the rat ovarian microsome assay; assay type: biochemical; details: EC50: concentration required to achieve 50% inhibition of aromatase activity, substrate (androstenedione) concentration 0.1 μM
T1 construct: ovarian microsomes are obtained from rats treated with pregnant mares serum gonadotropin; from tissue; host or cells: ovarian microsomes of rats treated with pregnant mares serum gonadotropin
T1 sequence (P22443 1-508): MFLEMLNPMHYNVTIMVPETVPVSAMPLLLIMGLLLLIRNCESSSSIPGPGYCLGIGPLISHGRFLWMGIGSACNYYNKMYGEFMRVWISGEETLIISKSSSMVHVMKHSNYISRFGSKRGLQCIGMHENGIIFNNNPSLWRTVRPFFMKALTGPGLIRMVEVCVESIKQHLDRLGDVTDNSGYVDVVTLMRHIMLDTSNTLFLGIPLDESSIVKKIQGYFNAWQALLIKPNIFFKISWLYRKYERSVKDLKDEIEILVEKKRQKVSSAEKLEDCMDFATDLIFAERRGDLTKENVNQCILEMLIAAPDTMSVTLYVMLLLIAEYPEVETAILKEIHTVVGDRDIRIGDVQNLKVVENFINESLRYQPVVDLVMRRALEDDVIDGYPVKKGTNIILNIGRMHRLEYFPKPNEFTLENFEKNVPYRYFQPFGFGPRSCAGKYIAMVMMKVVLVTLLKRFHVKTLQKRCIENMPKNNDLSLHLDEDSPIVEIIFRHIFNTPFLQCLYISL
Method: In this test system, ovarian microsomes are obtained from rats treated with pregnant mares serum gonadotropin. Test compounds are added to reaction vials containing 0.1 μM 4-androstene-3,17-dione, 100,000 dpm 1,2[^3 H]-androstenedione, the microsomes and a NADPH generating system. The concentrations of the inhibitors tested ranged between 0.005 and 10 μM.

estrogen synthesis = test: Estrogen synthesis inhibition in rats (uterine weight and ovarian steroid concentrations); assay type: in vivo, female Wistar rats; details: for Mean Steroid Concentration, estradiol / Mean Steroid Concentration, estriol / Mean Steroid Concentration, estrone: ovaries; for Mean Uterine Weight: testosterone propionate-treated rats
Method: Test compounds were administered for seven days either daily by gavage in corn oil or as a component of the diet. Control animals received either corn oil or diet without the test compound. Beginning on the fourth day of the test, all animals treated with the test compound and one half of the control animals were given a subcutaneous injection of 1.0 mg of testosterone propionate in corn oil. The remaining control animals received only an equivalent volume of corn oil.
After two hours, the animals were killed by decapitation. Uteri were isolated, trimmed of extraneous connective tissue, and weighed. […] In the control animals treated with testosterone propionate, estrogens produced by aromatization stimulated the uterus resulting in an increase in weight.
The ovarian steroids were extracted with 1.5 ml of 9:1 (v/v) toluene/ethanol to which had been added 25 to 100 mcg each of unlabelled estradiol, estriol, and estrone, and approximately 1000 dpm of [^14 C]-estradiol. The samples were vortexed, centrifuged at 500×g for 10 minutes, and the organic phase was transferred to a conical vial. Two additional extractions were performed on the residue in the same way. The pooled organic extracts were evaporated for subsequent thin-layer chromatography.
Ovarian proteins were precipitated by the addition of 5.0 ml of ethanol to the remaining aqueous phase. After an overnight incubation at 4° C., the samples were centrifuged at 1500×g for 10 minutes. The supernatant was discarded, and the pellet was dissolved in 0.3N potassium hydroxide.
The organic residue from each above extraction was redissolved in 9:1 (v/v) dichloromethane/methanol. The solution of each sample was applied to separate silica gel thin layer chromatography plates which contained a fluorescent indicator. The plates were developed in the first dimension with 160:38:1.5:0.5 (v/v/v/v) dichloromethane/ethyl acetate/methanol/acetic acid to within 3 cm of the top of the plate. After air-drying, the plate was developed in the second dimension with 180:19:1 (v/v/v) dichloromethane/methanol/ammonium hydroxide. The plate was air-dried and viewed under 254 nm UV light.
The visible spots were marked and the plates were sprayed with primulin (0.001% in 4:1 v/v acetone/water) according to the method of Wright, J. Chromatography, 59, 220 (1971) which allowed for the identification of additional steroids under 365 nm UV light. The spots were scraped from the plate using a glass wool plugged Pasteur pipet attached to a vacuum line. The steroids were eluted directly into scintillation vials by the addition of 0.2 ml of dichloromethane followed by two washes each of 2.0 ml of methanol. The organic solvent was evaporated and 10.0 ml of scintillation fluid (Beckman Ready Solv-NA) was added to the vials. Samples were analyzed by liquid scintillation spectrometry. Corrections were made based on the recoveries of the [^14 C]-steroid. Steroid concentrations are expressed as femtomoles per milligram protein.

[1] = 30 ppm in feed (approximately 3 mg/kg/day)
[2] = 300 ppm in feed (approximately 30 mg/kg/day)
[3] = 200 ppm in feed (approximately 20 mg/kg/day)

Clc1ccc(C(c2ccc(Cl)cc2)(c2cccnc2)n2cncn2)cc1 [3-[bis(4-chlorophenyl)-1H--1,2,4-triazol-1-ylmethyl]pyridine] was tested, and the EC50 (aromatase) was 60 nM, the “Mean Steroid Concentration, estradiol” value (estrogen synthesis; [1]) was 1.83 femtomoles per milligram of protein and the “Mean Steroid Concentration, estriol” value (estrogen synthesis; [1]) was 0.36 femtomoles per milligram of protein. For the same compound, the “Mean Steroid Concentration, estrone” value (estrogen synthesis; [1]) was 0.06 femtomoles per milligram of protein, the “Mean Uterine Weight” value (estrogen synthesis; [1]) was 150.8 mg and the “Mean Steroid Concentration, estradiol” value (estrogen synthesis; [2]) was 1.18 femtomoles per milligram of protein. The “Mean Steroid Concentration, estriol” value (estrogen synthesis; [2]) was 0.13 femtomoles per milligram of protein, the “Mean Steroid Concentration, estrone” value (estrogen synthesis; [2]) was 0.06 femtomoles per milligram of protein and the “Mean Uterine Weight” value (estrogen synthesis; [2]) was 85.6 mg.
For FC(F)(F)c1cccc(C(c2ccc(Cl)cc2)(c2cccnc2)n2ccnc2)c1 (stereo not drawn) [3-[(4-chlorophenyl)-1H--imidazol-1-yl-(3-trifluoromethylphenyl)methyl]pyridine], the EC50 (aromatase) was less than 50 nM, the “Mean Steroid Concentration, estradiol” value (estrogen synthesis; [3]) was 0.70 femtomoles per milligram of protein and the “Mean Steroid Concentration, estriol” value (estrogen synthesis; [3]) was 0.27 femtomoles per milligram of protein. The “Mean Steroid Concentration, estrone” value (estrogen synthesis; [3]) was 0.06 femtomoles per milligram of protein and the “Mean Uterine Weight” value (estrogen synthesis; [3]) was 122.6 mg.
In the case of c1ccc(C(c2ccccc2)(c2ccccc2)n2ccnc2)cc1 [1-tritylimidazole], the EC50 (aromatase) is reported as 32 nM, the “Mean Steroid Concentration, estradiol” value (estrogen synthesis; [1]) is reported as 0.75 femtomoles per milligram of protein and the “Mean Steroid Concentration, estriol” value (estrogen synthesis; [1]) is reported as 0.44 femtomoles per milligram of protein. The “Mean Steroid Concentration, estrone” value (estrogen synthesis; [1]) was 0.23 femtomoles per milligram of protein, the “Mean Uterine Weight” value (estrogen synthesis; [1]) was 135.0 mg and the “Mean Steroid Concentration, estradiol” value (estrogen synthesis; [2]) was 0.64 femtomoles per milligram of protein. For the same compound, the “Mean Steroid Concentration, estriol” value (estrogen synthesis; [2]) was 0.28 femtomoles per milligram of protein, the “Mean Steroid Concentration, estrone” value (estrogen synthesis; [2]) was 0.21 femtomoles per milligram of protein and the “Mean Uterine Weight” value (estrogen synthesis; [2]) was 122.6 mg.
In the case of C#CC(c1ccccc1)(c1ccccc1)n1ccnc1 [1-(1,1-diphenyl-2-propynyl)-1H--imidazole], the EC50 (aromatase) is reported as 18 nM, the “Mean Steroid Concentration, estradiol” value (estrogen synthesis; [1]) is reported as 1.05 femtomoles per milligram of protein and the “Mean Steroid Concentration, estriol” value (estrogen synthesis; [1]) is reported as 1.06 femtomoles per milligram of protein. The “Mean Steroid Concentration, estrone” value (estrogen synthesis; [1]) was 0.00 femtomoles per milligram of protein, the “Mean Uterine Weight” value (estrogen synthesis; [1]) was 212.3 mg and the “Mean Steroid Concentration, estradiol” value (estrogen synthesis; [2]) was 1.01 femtomoles per milligram of protein. The “Mean Steroid Concentration, estriol” value (estrogen synthesis; [2]) was 0.60 femtomoles per milligram of protein, the “Mean Steroid Concentration, estrone” value (estrogen synthesis; [2]) was 0.00 femtomoles per milligram of protein and the “Mean Uterine Weight” value (estrogen synthesis; [2]) was 137.6 mg.
For O=[N+]([O-])c1ccc(Cn2ccnc2)cc1 [1-[(4-nitrophenyl)methyl]-1H--imidazole hydrochloride], the EC50 (aromatase) was 29 nM, the “Mean Steroid Concentration, estradiol” value (estrogen synthesis; [1]) was 1.16 femtomoles per milligram of protein and the “Mean Steroid Concentration, estriol” value (estrogen synthesis; [1]) was 0.80 femtomoles per milligram of protein. For the same compound, the “Mean Steroid Concentration, estrone” value (estrogen synthesis; [1]) was 0.88 femtomoles per milligram of protein, the “Mean Uterine Weight” value (estrogen synthesis; [1]) was 185.3 mg and the “Mean Steroid Concentration, estradiol” value (estrogen synthesis; [2]) was 0.79 femtomoles per milligram of protein. For the same compound, the “Mean Steroid Concentration, estriol” value (estrogen synthesis; [2]) was 1.11 femtomoles per milligram of protein, the “Mean Steroid Concentration, estrone” value (estrogen synthesis; [2]) was 1.19 femtomoles per milligram of protein and the “Mean Uterine Weight” value (estrogen synthesis; [2]) was 147.2 mg.
With Clc1ccc(COc2ccccc2Cn2ccnc2)c(Cl)c1 [1-[(2-[2,4-dichlorobenzyloxy]phenyl)methyl]-1H--imidazole nitrate] the EC50 (aromatase) was 68 nM, the “Mean Steroid Concentration, estradiol” value (estrogen synthesis; [1]) was 1.16 femtomoles per milligram of protein and the “Mean Steroid Concentration, estriol” value (estrogen synthesis; [1]) was 0.33 femtomoles per milligram of protein. The “Mean Steroid Concentration, estrone” value (estrogen synthesis; [1]) was 0.31 femtomoles per milligram of protein, the “Mean Uterine Weight” value (estrogen synthesis; [1]) was 173.5 mg and the “Mean Steroid Concentration, estradiol” value (estrogen synthesis; [2]) was 1.97 femtomoles per milligram of protein. The “Mean Steroid Concentration, estriol” value (estrogen synthesis; [2]) was 0.34 femtomoles per milligram of protein, the “Mean Steroid Concentration, estrone” value (estrogen synthesis; [2]) was 0.30 femtomoles per milligram of protein and the “Mean Uterine Weight” value (estrogen synthesis; [2]) was 151.4 mg.
For Cl.Clc1cccc(Cn2ccnc2)c1Cl [1-(2,3-dichlorobenzyl)imidazole hydrochloride], the EC50 (aromatase) was 87 nM, the “Mean Steroid Concentration, estradiol” value (estrogen synthesis; [1]) was 2.09 femtomoles per milligram of protein and the “Mean Steroid Concentration, estriol” value (estrogen synthesis; [1]) was 0.78 femtomoles per milligram of protein. The “Mean Steroid Concentration, estrone” value (estrogen synthesis; [1]) was 0.34 femtomoles per milligram of protein, the “Mean Uterine Weight” value (estrogen synthesis; [1]) was 139.4 mg and the “Mean Steroid Concentration, estradiol” value (estrogen synthesis; [2]) was 1.12 femtomoles per milligram of protein. For the same compound, the “Mean Steroid Concentration, estriol” value (estrogen synthesis; [2]) was 0.41 femtomoles per milligram of protein, the “Mean Steroid Concentration, estrone” value (estrogen synthesis; [2]) was 0.23 femtomoles per milligram of protein and the “Mean Uterine Weight” value (estrogen synthesis; [2]) was 127.3 mg.
With CCOc1ccccc1C(C1CCCCC1)n1ccnc1 (stereo not drawn) [1-[cyclohexyl(2-ethoxyphenyl)methyl]-1H--imidazole hydrochloride] the EC50 (aromatase) was 22 nM, the “Mean Steroid Concentration, estradiol” value (estrogen synthesis; [1]) was 1.30 femtomoles per milligram of protein and the “Mean Steroid Concentration, estriol” value (estrogen synthesis; [1]) was 0.36 femtomoles per milligram of protein. For the same compound, the “Mean Steroid Concentration, estrone” value (estrogen synthesis; [1]) was 0.24 femtomoles per milligram of protein, the “Mean Uterine Weight” value (estrogen synthesis; [1]) was 149.0 mg and the “Mean Steroid Concentration, estradiol” value (estrogen synthesis; [2]) was 1.11 femtomoles per milligram of protein. The “Mean Steroid Concentration, estriol” value (estrogen synthesis; [2]) was 0.28 femtomoles per milligram of protein, the “Mean Steroid Concentration, estrone” value (estrogen synthesis; [2]) was 0.20 femtomoles per milligram of protein and the “Mean Uterine Weight” value (estrogen synthesis; [2]) was 96.6 mg.
In the case of FC(F)(F)c1cccc(C(c2ccc(Cl)cc2)(c2cccnc2)n2cncn2)c1 (stereo not drawn) [3-[(4-chlorophenyl)-1H--1,2,4-triazol-1-yl-(3-trifluoromethylphenyl)methyl]pyridine], the EC50 (aromatase) is reported as 98 nM, the “Mean Steroid Concentration, estradiol” value (estrogen synthesis; [3]) is reported as 0.88 femtomoles per milligram of protein and the “Mean Steroid Concentration, estriol” value (estrogen synthesis; [3]) is reported as 0.06 femtomoles per milligram of protein. For the same compound, the “Mean Steroid Concentration, estrone” value (estrogen synthesis; [3]) was 0.01 femtomoles per milligram of protein and the “Mean Uterine Weight” value (estrogen synthesis; [3]) was 159.2 mg.
In the case of c1ccc(C(c2ccccc2)(c2ccncc2)n2ccnc2)cc1 [4-(1H--imidazol-1-yl-diphenylmethyl)pyridine], the EC50 (aromatase) is reported as 12 nM, the “Mean Steroid Concentration, estradiol” value (estrogen synthesis; [1]) is reported as 0.78 femtomoles per milligram of protein and the “Mean Steroid Concentration, estriol” value (estrogen synthesis; [1]) is reported as 0.35 femtomoles per milligram of protein. The “Mean Steroid Concentration, estrone” value (estrogen synthesis; [1]) was 0.25 femtomoles per milligram of protein, the “Mean Uterine Weight” value (estrogen synthesis; [1]) was 156.0 mg and the “Mean Steroid Concentration, estradiol” value (estrogen synthesis; [2]) was 0.61 femtomoles per milligram of protein. For the same compound, the “Mean Steroid Concentration, estriol” value (estrogen synthesis; [2]) was 0.29 femtomoles per milligram of protein, the “Mean Steroid Concentration, estrone” value (estrogen synthesis; [2]) was 0.23 femtomoles per milligram of protein and the “Mean Uterine Weight” value (estrogen synthesis; [2]) was 110.8 mg.
For Cc1nccn1C(c1ccc(Cl)cc1)(c1ccc(Cl)cc1)c1cccnc1 [3-[bis(4-chlorophenyl)(2-methyl-1H--imidazol-1-yl)methyl]pyridine], the EC50 (aromatase) was less than 50 nM, the “Mean Steroid Concentration, estradiol” value (estrogen synthesis; [3]) was 0.89 femtomoles per milligram of protein and the “Mean Steroid Concentration, estriol” value (estrogen synthesis; [3]) was 0.38 femtomoles per milligram of protein. The “Mean Steroid Concentration, estrone” value (estrogen synthesis; [3]) was 0.06 femtomoles per milligram of protein and the “Mean Uterine Weight” value (estrogen synthesis; [3]) was 125.8 mg.
